We go through 1 compound from patent US9675543B2, “Method of improving aging appearance of skin by modulation of WIPI-1” (Avon Products, Inc., priority 2012, dated 2017).

For the assay, the system named is WIPI-1. Kind of assay: WIPI-1 Screening, mRNA up-regulation in normal human keratinocytes (HEKa), Quantigene multiplex assay. It is filed as cell-based. The following applies: for HEKa Activity Level (percent up-regulation of WIPI-1 mRNA, scaled score): HEKa keratinocytes, 24 hours, vs vehicle control. As for the experimental part: A variety of botanical extract and synthetic compounds were tested for the ability to up-regulate WIPI-1. Normal human dermal fibroblasts or keratinocytes were cultured in 96-well tissue culture treated plates, containing appropriate culture medium. Stock solutions of actives were made in an appropriate vehicle (water/Ethanol/DMSO). Cells were treated with test material or respective vehicle control diluted in growth medium for 24 hours in a humidified 37° C. incubator with 10% CO2. The concentrations of each extract are provided based on the dry weight of the given plant extract, by which is meant the weight of the extract after volatile extraction solvents have been removed. After incubation, growth medium from each plate was removed and 100 μL of lysis buffer was added to the wells and placed in 37° C. incubator with 10% CO2 for 30 minutes. At the end of incubation, the cells were collected in freezer plates and placed in −80° C. freezer, until analysis. Changes in mRNA after treatment were analysed using Panomics Quantigene multiplex assay that employs a branched DNA technology, following manufacturer's instructions (Affymetrix, CA). Percent increase (up-regulation) in mRNA for the WIPI-1 were calculated by comparing the test results to the control. The percent up-regulation is converted to a scaled score: 0: 0-20%; +: 21-40%; ++: 41-60%; +++: 61-80%; ++++: >80%.

The structures appear in SMILES notation.

For the compound `CCOCCCNC(=O)c1coc(CN(CCCOCC)C(=O)c2ccc(Cl)cc2)n1` [Analog 1], the “HEKa Activity Level (percent up-regulation of WIPI-1 mRNA, scaled score)” value by setting is: (concentration 0.001%) “+ (+: 21-40%)”; (concentration 0.01%) “+ (+: 21-40%)”. Further, the “WIPI-1 within keratinocytes upregulated (in words)” value (keratinocytes) was “upregulated”.
